Assay results as given in PubChem BioAssay AID2060609 (Molecular Pharmacology Branch, DTP, NCI, 2025).
pIC50: −log10 of the molar value. Where “and” joins values, the source holds several entries; their conditions need not be identical. Identical values can stand only once.

Tested on: 855422-203-R-J1-PDC complex spheroids, viability
Test: Anticancer human tumor 855422-203-R-J1-PDC patient-derived bladder carcinoma cell line growth inhibition [CLK]
Conditions: for viability, T/C: stronger effect = lower value
Source text: A high-throughput screen of multi-cell type tumor spheroids was designed to identify active combinations of […] and targeted small molecules. Complex spheroids include a stromal component modeled by human endothelial cells (HUVEC) and fibroblasts modeled by human mesenchymal stem cells (MSCs). The concentration ranges selected for each drug and investigational agent were based upon clinically achievable concentrations if the clinical Cmax of the agent was known.
Compounds. The drugs and investigational agents: cirtuvivint (SM08502; NSC835563), CC-671 (NSC850746), vemurafenib (NSC761431), tapotoclax (NSC804041), sotorasib (NSC818433), adagrasib (NSC831453), MRTX-1133 (NSC836407), BAY2416964 (NSC825713), copanlisib (NSC816437), inavolisib (NSC800729), abemaciclib (NSC768073), osimertinib (NSC779217), entinostat (NSC756642), eltanexor (KPT-8602, NSC794443), venetoclax (NSC766270), ceralasertib (NSC777638), bortezomib (NSC756655), olaparib (NSC753686), talazoparib (NSC767125), alisertib (NSC759677), peposertib (NSC802822), gemcitabine (NSC613327), 5-fluorouracil (NSC19893), SN-38 (NSC673596), oxaliplatin (NSC266046), paclitaxel (NSC125973), and doxorubicin (NSC123127), were obtained from the National Cancer Institute (NCI) Developmental Therapeutics Program Chemical Repository. The FDA-approved anticancer drug set is available from the Developmental Therapeutics Program at https://dtp.cancer.gov/organization/dscb/obtaining/available plates.htm. […] The stock solutions were prepared in dimethyl sulfoxide (DMSO, Sigma-Aldrich, St. Louis, MO, cat. D2650), except for the platinum complexes which were prepared in saline (Quality Biological, Gaithersburg, MD, cat. 114-055-101), at 800-fold the tested concentration and stored at -70 degrees C prior to their use. All drugs and investigational agents were tested over a range starting from a high concentration at or near the clinical Cmax and decreasing in half-log increments. If the clinical Cmax for an agent had not been determined, the highest concentration tested was 10 microM.
Cell Culture. All cells were maintained in an incubator at 37 degrees C and 5% CO2 with 95% humidity. The PDC lines were cultured according to standard operating procedures established by the NCI PDMR. Briefly, all PDCs were thawed and cultured in Matrigel-coated flasks prepared with a working solution of 1X Ham's F-12 nutrient mix, without supplementation (Invitrogen, Waltham, MA, cat. 11765054), 100 U/mL penicillin-streptomycin (Invitrogen, cat. 15140122), and 2.5% Matrigel (Corning Inc., Corning, NY, cat. 354248) for the first three passages. The 947758-054-R-J2-PDC line was cultured in 6B/Colon 1A media, which includes advanced DMEM/F-12 (Thermo Fisher Scientific, cat. 12634028), 10 mM HEPES (Thermo Fisher Scientific, cat. 15630080), 1X GlutaMAX supplement (Thermo Fisher Scientific, cat. 35050061), 0.1 mg/mL primocin (InvivoGen, cat. ant-pm-2), 10% defined fetal bovine serum, heat inactivated (HyClone Laboratories Inc., cat. SH30070.03HI), 1.25 mM N-Acetyl-L-cysteine (Sigma-Aldrich, cat. A9165), 10 mM nicotinamide (Sigma-Aldrich, cat. N0636), 1X B-27 supplement (Thermo Fisher Scientific, cat. 17504044), 1X N-2 supplement (Thermo Fisher Scientific, cat. 17502048), and 10 microM Y-27632 dihydrochloride (Tocris Bioscience, cat. 1254). The 876862-298-R-J1-PDC was cultured in 6E media, which includes all 6B/Colon 1A media components plus 50% L-WRN conditioned media (ATCC, cat. CRL-3276), 50 ng/mL recombinant human EGF recombinant protein (hEGF; Thermo Fisher Scientific, cat. PHG0311), 10 ng/mL recombinant human fibroblast growth factor 10 (hGFG-10; PeproTech, cat. 100-26), 1 ng/mL recombinant human fibroblast growth factor 2 (hFGF-2; PeproTech, cat. 100-18B), and 1 µM prostaglandin E2 (PGE2; Tocris, cat. 2296). The 227483-062-R1-J1-PDC line was cultured in Panc media, containing all 6E components except hFGF-2, with the addition of 500 nM SB-431542 (Selleckchem, cat. S1067) and 10 nM gastrin (Tocris, cat. 3006). […]

[1] = curve of first compound, second compound 0.0316 µM
[2] = curve of first compound, second compound 0.1 µM
[3] = curve of first compound, second compound 0.316 µM
[4] = curve of first compound, second compound 1 µM
[5] = curve of first compound, second compound 3.16 µM
[6] = curve of first compound, second compound 10 µM
[7] = second compound 0.0316 µM, first compound 0.0316 µM
[8] = second compound 0.0316 µM, first compound 0.1 µM
[9] = second compound 0.0316 µM, first compound 0.316 µM
[10] = second compound 0.0316 µM, first compound 1 µM
[11] = second compound 0.1 µM, first compound 0.0316 µM
[12] = second compound 0.1 µM, first compound 0.1 µM
[13] = second compound 0.1 µM, first compound 0.316 µM
[14] = second compound 0.1 µM, first compound 1 µM
[15] = second compound 0.316 µM, first compound 0.0316 µM
[16] = second compound 0.316 µM, first compound 0.1 µM
[17] = second compound 0.316 µM, first compound 0.316 µM
[18] = second compound 0.316 µM, first compound 1 µM
[19] = second compound 1 µM, first compound 0.0316 µM
[20] = second compound 1 µM, first compound 0.1 µM
[21] = second compound 1 µM, first compound 0.316 µM
[22] = second compound 1 µM, first compound 1 µM
[23] = second compound 3.16 µM, first compound 0.0316 µM
[24] = second compound 3.16 µM, first compound 0.1 µM
[25] = second compound 3.16 µM, first compound 0.316 µM
[26] = second compound 3.16 µM, first compound 1 µM
[27] = second compound 10 µM, first compound 0.0316 µM
[28] = second compound 10 µM, first compound 0.1 µM
[29] = second compound 10 µM, first compound 0.316 µM
[30] = second compound 10 µM, first compound 1 µM
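Also: spheroids exposed to drugs for seven days before readout.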
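For viability, T/C in this document: 100% = DMSO vehicle control wells.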

## CNC(=O)c1ccc(Nc2nc(OC3CCCC3)c3c(-c4ccc5nc(C)oc5c4)c[nH]c3n2)c(OC)c1
Compound 0.316 µM
  viability, T/C: 23.8% [middle of 12 runs]
Compound 1 µM
  viability, T/C: 22.5% [middle of 12 runs]
Compound 3.16 µM
  viability, T/C: 21.2% [middle of 12 runs]
Compound 10 µM
  viability, T/C: 20.1% [middle of 11 runs]
Compound alone, run of 08/01/2023
  IC50: 142 nM [middle of 11 runs]

## C=C(F)C(=O)N1CCN(c2nc(OCC3CCCN3C)nc3c2CCN(c2cccc4cccc(Cl)c24)C3)CC1CC#N (stereo not drawn)
Compound 0.0316 µM
  viability, T/C: 94.2% and 121%
Compound 0.1 µM
  viability, T/C: 111% and 115%
Compound 0.316 µM
  viability, T/C: 93.3% and 113%
Compound 1 µM
  viability, T/C: 111% and 123%
Compound 3.16 µM
  viability, T/C: 11.1% and 26%
Compound 10 µM
  viability, T/C: 1.51% and 0.48%
Curve of compound
  pIC50: 5.71 and 5.63

## Nc1ccccc1NC(=O)c1ccc(CNC(=O)OCc2cccnc2)cc1
Compound 0.0316 µM
  viability, T/C: 81.5% and 97.5%
Compound 0.1 µM
  viability, T/C: 72.8% and 73.2%
Compound 0.316 µM
  viability, T/C: 75.6% and 75%
Compound 1 µM
  viability, T/C: 60.6% and 54.4%
Compound 3.16 µM
  viability, T/C: 21.2% and 28.1%
Compound 10 µM
  viability, T/C: 2.46% and 1.54%
Curve of compound
  pIC50: 5.87 and 5.94

## COc1cccc2c1C(=O)c1c(O)c3c(c(O)c1C2=O)CC(O)(C(=O)CO)CC3OC1CC(N)C(O)C(C)O1 (stereo not drawn) + CNC(=O)c1ccc(Nc2nc(OC3CCCC3)c3c(-c4ccc5nc(C)oc5c4)c[nH]c3n2)c(OC)c1
[1]
  pIC50: > 7.50
[2]
  pIC50: > 7.50
[3]
  pIC50: > 7.50
[4]
  pIC50: > 7.50
[5]
  pIC50: > 7.50
[6]
  pIC50: > 7.50
[7]
  viability, T/C: 10.3%
[8]
  viability, T/C: 2.45%
[9]
  viability, T/C: 0.72%
[10]
  viability, T/C: 0.22%
Second compound 0.0316 µM, first compound 3.16 µM
  viability, T/C: 0.45%
Second compound 0.0316 µM, first compound 10 µM
  viability, T/C: 0.6%
[11]
  viability, T/C: 11%
[12]
  viability, T/C: 1.62%
[13]
  viability, T/C: 1.02%
[14]
  viability, T/C: 0.3%
Second compound 0.1 µM, first compound 3.16 µM
  viability, T/C: 0.4%
Second compound 0.1 µM, first compound 10 µM
  viability, T/C: 0.51%
[15]
  viability, T/C: 9.64%
[16]
  viability, T/C: 1.3%
[17]
  viability, T/C: 0.46%
[18]
  viability, T/C: 0.22%
Second compound 0.316 µM, first compound 3.16 µM
  viability, T/C: 0.45%
Second compound 0.316 µM, first compound 10 µM
  viability, T/C: 0.55%
[19]
  viability, T/C: 7.4%
[20]
  viability, T/C: 1.13%
[21]
  viability, T/C: 0.24%
[22]
  viability, T/C: 0.56%
Second compound 1 µM, first compound 3.16 µM
  viability, T/C: 0.58%
Second compound 1 µM, first compound 10 µM
  viability, T/C: 0.82%
[23]
  viability, T/C: 9.03%
[24]
  viability, T/C: 0.94%
[25]
  viability, T/C: 0.2%
[26]
  viability, T/C: 0.62%
Second compound 3.16 µM, first compound 3.16 µM
  viability, T/C: 0.98%
Second compound 3.16 µM, first compound 10 µM
  viability, T/C: 0.75%
[27]
  viability, T/C: 6.1%
[28]
  viability, T/C: 0.68%
[29]
  viability, T/C: 0.35%
[30]
  viability, T/C: 0.72%
Second compound 10 µM, first compound 3.16 µM
  viability, T/C: 0.63%
Second compound 10 µM, first compound 10 µM
  viability, T/C: 1.3%

## CCc1c2c(nc3ccc(O)cc13)-c1cc3c(c(=O)n1C2)COC(=O)[C@]3(O)CC + CN1CCN(c2cc(C(=O)Nc3cc4cc(-c5cnn(C)c5)ccc4cn3)ccn2)CC1
[1]
  pIC50: 8.37
[2]
  pIC50: > 8.50
[3]
  pIC50: > 8.50
[4]
  pIC50: > 8.50
[5]
  pIC50: > 8.50
[6]
  pIC50: > 8.50
Second compound 0.0316 µM, first compound 0.00316 µM
  viability, T/C: 61.9%
Second compound 0.0316 µM, first compound 0.01 µM
  viability, T/C: 14.1%
[7]
  viability, T/C: 11.2%
[8]
  viability, T/C: 5.5%
[9]
  viability, T/C: 3.03%
[10]
  viability, T/C: 2.59%
Second compound 0.1 µM, first compound 0.00316 µM
  viability, T/C: 24.7%
Second compound 0.1 µM, first compound 0.01 µM
  viability, T/C: 12.1%
[11]
  viability, T/C: 7.5%
[12]
  viability, T/C: 4.65%
[13]
  viability, T/C: 3.59%
[14]
  viability, T/C: 1.4%
Second compound 0.316 µM, first compound 0.00316 µM
  viability, T/C: 5.85%
Second compound 0.316 µM, first compound 0.01 µM
  viability, T/C: 5.41%
[15]
  viability, T/C: 5.45%
[16]
  viability, T/C: 1.97%
[17]
  viability, T/C: 0.54%
[18]
  viability, T/C: 0.17%
Second compound 1 µM, first compound 0.00316 µM
  viability, T/C: 1.09%
Second compound 1 µM, first compound 0.01 µM
  viability, T/C: 0.16%
[19]
  viability, T/C: 0.3%
[20]
  viability, T/C: 0.23%
[21]
  viability, T/C: 0.15%
[22]
  viability, T/C: 0.33%
Second compound 3.16 µM, first compound 0.00316 µM
  viability, T/C: 0.33%
Second compound 3.16 µM, first compound 0.01 µM
  viability, T/C: 0.52%
[23]
  viability, T/C: 0.44%
[24]
  viability, T/C: 0.3%
[25]
  viability, T/C: 0.46%
[26]
  viability, T/C: 0.23%
Second compound 10 µM, first compound 0.00316 µM
  viability, T/C: 0.38%
Second compound 10 µM, first compound 0.01 µM
  viability, T/C: 0.17%
[27]
  viability, T/C: 0.26%
[28]
  viability, T/C: 2.2%
[29]
  viability, T/C: 2.67%
[30]
  viability, T/C: 0.19%
